Measurements reported in ChEMBL document CHEMBL1201862, “PubChem BioAssay data set” (2004).
Active and inactive are the calls of the source. Cut-off read from the data, not from the text of the source, for most assays here: actives have a measured EC50 and inactives only a lower limit.

Assays:
[1] = biological target: Luciferin 4-monooxygenase (Photinus pyralis, UniProt P08659); experiment: firefly luciferase enzyme inhibitors, dose response, biochemical, luminescence (AID 1891)
[2] = Luminescence Cell-Based Dose Confirmation HTS to Identify Inhibitors of Platelet Dense Granule Release. [Related pubchem assays: 1663 (Primary HTS), 1678 (Summary of Project)]; assay type: functional
[3] = inhibitors of firefly luciferase expression or activity, dose response, H4 neuroglioma cells, luminescence (AID 1990); assay type: functional, cell-based
[4] = Luminescence Cell-Based Dose Response HTS to Identify Inhibitors of 5'UTR Stem-Loop Driven Prion Protein mRNA Translation in H4 Neuroglioblastoma Cells. [Related pubchem assays: 1827 (Project Summary), 1813 (Primary HTS)]; assay type: functional
[5] = inhibitors of SNCA 5'UTR-driven reporter translation, confirmation, H4 neuroglioma cells, luminescence (AID 1988); assay type: functional, cell-based
[6] = tested on: Streptococcus sp. 'group A'; experiment: growth inhibition of control SK(-) GAS strain, dose response, counter-screen for streptokinase expression inhibitor project, luminescence, kanamycin, BacTiterGlo, confirmation (AID 1900); assay type: functional, organism-based
[7] = biological target: T1, Streptokinase A (Streptococcus pyogenes serotype M1, UniProt P10520); experiment: S. pyogenes streptokinase expression inhibitors, potency, dose response, plasminogen activation absorbance, OD405 (AID 1914); assay type: functional, Streptococcus pyogenes M1 GAS;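 note: secreted streptokinase activity via plasminogen activation per viability signal from cell pellet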
T1 sequence (P10520 whole entry): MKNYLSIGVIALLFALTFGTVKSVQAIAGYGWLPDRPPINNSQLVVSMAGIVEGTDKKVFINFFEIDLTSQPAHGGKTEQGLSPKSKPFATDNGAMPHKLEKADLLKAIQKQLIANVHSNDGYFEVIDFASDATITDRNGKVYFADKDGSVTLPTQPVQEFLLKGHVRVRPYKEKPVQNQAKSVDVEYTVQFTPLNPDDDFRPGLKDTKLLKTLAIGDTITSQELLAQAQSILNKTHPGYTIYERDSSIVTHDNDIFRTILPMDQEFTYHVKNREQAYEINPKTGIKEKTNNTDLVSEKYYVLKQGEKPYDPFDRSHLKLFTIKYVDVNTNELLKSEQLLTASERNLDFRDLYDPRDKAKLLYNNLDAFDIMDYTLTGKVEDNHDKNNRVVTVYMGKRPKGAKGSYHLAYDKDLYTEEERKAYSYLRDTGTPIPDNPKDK

[8] = inhibitors of intracellular T. cruzi replication, confirmation, NIH3T3 host cells, beta-gal luminescence (AID 2044); assay type: functional, cell-based;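 note: intracellular parasites grown in NIH/3T3 mouse fibroblasts as host cells; luminescent beta-galactosidase reporter signal from transgenic T. cruzi replicating inside host cells; inhibitors lower the luminescence signal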
[9] = cytotoxicity toward NIH3T3 fibroblasts, dose response, counter-screen, cell-based, ATP luminescence, mouse fibroblasts (AID 2010); assay type: functional;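 note: cells exposed to compound for about 90 hours before reading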
[10] = tested on: Streptococcus; experiment: Group A Streptococcus viability loss, dose response, counter-screen for streptokinase expression inhibitor project, luminescence, BacTiterGlo (AID 1915); assay type: functional, organism-based;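 note: potency for reduction of bacterial viability or growth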
[11] = tested on: INS1; experiment: beta cell apoptosis inhibitors, cytokine rescue, dose response, luminescence, retest (AID 449756); assay type: functional, cell-based; details: Rattus norvegicus;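 note: cell death triggered by IL-1 beta plus TNF-alpha plus IFN-gamma mixture; protective hits raise ATP signal compared with cytokine alone wells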
[12] = biological target: T2, Heat shock factor protein 1 (Mus musculus, UniProt P38532); experiment: inhibition of MG132-induced HSE-luciferase signal, confirmation, cell-based, NIH3T3, luminescence, dose retest (AID 2382); assay type: functional;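 note: NIH3T3 fibroblasts with HSF1-driven luciferase reporter stressed by proteasome inhibitor MG132; luminescence from HSF1-driven luciferase expression after 8 hours of MG132 stress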
T2 sequence (P38532 whole entry): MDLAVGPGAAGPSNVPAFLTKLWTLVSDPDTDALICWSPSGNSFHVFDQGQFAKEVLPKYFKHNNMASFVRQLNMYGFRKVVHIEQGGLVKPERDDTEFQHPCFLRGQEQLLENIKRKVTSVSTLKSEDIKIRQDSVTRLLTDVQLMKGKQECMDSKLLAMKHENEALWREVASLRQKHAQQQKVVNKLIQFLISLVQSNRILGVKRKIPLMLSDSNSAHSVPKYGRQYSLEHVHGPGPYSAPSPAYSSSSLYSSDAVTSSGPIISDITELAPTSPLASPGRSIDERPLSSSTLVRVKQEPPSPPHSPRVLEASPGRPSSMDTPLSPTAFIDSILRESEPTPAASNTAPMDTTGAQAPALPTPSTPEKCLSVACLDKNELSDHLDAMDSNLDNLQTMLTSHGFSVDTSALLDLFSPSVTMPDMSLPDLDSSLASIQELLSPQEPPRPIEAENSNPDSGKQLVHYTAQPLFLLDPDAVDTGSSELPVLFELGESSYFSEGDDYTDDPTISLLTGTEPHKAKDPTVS

[13] = tested on: H9c2; experiment: cells; assay type: functional, cell-based; details: Rattus norvegicus, H9c2, Myocardium;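 note: confirmatory concentration-response retest of ultra-high-throughput screening hits for modulation of myocardial damage; cell death induced by hydrogen peroxide oxidative stress; compound pretreatment for 60 min then peroxide exposure for 2 h; potency is for protecting the cells against peroxide damage rather than for killing them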
[14] = biological target: T3, Cytochrome P450 1A2 (Homo sapiens, UniProt P05177);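 note: PubChem cytochrome P450 panel assay, CYP1A2 panel member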
T3 sequence (P05177 whole entry): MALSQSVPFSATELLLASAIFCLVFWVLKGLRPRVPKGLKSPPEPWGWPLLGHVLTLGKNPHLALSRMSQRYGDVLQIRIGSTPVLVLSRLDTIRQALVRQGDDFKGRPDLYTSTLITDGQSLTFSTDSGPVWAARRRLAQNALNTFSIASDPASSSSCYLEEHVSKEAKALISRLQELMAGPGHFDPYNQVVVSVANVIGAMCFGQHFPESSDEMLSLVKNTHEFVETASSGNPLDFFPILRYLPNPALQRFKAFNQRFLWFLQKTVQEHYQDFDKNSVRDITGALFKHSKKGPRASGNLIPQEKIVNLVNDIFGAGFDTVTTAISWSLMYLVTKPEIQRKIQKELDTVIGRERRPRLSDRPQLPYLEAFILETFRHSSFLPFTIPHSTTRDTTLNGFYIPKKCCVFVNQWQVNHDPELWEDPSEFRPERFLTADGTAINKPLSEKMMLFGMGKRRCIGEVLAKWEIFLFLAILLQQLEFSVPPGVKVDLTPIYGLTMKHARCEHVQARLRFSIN

[15] = biological target: Cytochrome P450 3A4 (Homo sapiens, UniProt P08684);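 note: CYP3A4 tested as one member of a cytochrome P450 panel screen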
Sequence of Cytochrome P450 3A4 (P08684 whole entry): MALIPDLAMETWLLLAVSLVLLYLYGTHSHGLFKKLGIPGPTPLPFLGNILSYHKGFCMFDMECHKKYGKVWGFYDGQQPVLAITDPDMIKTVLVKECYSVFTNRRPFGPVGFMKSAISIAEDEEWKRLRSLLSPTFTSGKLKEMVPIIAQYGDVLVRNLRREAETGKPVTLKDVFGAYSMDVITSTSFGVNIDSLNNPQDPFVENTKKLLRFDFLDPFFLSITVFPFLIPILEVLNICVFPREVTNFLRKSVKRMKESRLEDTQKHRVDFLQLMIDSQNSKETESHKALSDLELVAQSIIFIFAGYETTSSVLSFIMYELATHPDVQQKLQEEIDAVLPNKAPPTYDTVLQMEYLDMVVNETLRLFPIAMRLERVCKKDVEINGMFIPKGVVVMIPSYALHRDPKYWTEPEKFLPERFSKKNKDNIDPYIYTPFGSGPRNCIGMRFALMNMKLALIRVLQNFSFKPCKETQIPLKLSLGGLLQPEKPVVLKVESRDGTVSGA

[16] = biological target: Paired box protein Pax-8 (Homo sapiens, UniProt Q06710); experiment: inhibitors of PAX8-driven TPO luciferase reporter, dose response, RMG-I cells, cherry-pick (AID 687027); assay type: functional, cell-based;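 note: luciferase reporter driven by Pax8 target thyroperoxidase promoter measured by SteadyGlo luminescence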
Sequence of Paired box protein Pax-8 (Q06710 whole entry): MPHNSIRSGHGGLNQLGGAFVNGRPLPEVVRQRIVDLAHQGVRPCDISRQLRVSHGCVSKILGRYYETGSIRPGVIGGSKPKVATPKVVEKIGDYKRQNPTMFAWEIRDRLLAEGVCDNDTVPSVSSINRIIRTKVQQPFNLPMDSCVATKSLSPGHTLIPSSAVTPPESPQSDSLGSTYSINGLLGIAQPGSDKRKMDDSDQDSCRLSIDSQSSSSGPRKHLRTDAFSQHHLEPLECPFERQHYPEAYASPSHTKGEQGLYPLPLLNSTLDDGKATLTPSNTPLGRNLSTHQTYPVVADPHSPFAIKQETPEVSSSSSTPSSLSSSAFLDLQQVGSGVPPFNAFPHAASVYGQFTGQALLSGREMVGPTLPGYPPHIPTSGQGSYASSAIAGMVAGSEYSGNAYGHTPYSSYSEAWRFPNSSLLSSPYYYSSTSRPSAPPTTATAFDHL

[17] = biological target: Cytochrome P450 2D6 (Homo sapiens, UniProt P10635);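 note: CYP2D6 member of a cytochrome P450 panel assay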
Sequence of Cytochrome P450 2D6 (P10635 whole entry): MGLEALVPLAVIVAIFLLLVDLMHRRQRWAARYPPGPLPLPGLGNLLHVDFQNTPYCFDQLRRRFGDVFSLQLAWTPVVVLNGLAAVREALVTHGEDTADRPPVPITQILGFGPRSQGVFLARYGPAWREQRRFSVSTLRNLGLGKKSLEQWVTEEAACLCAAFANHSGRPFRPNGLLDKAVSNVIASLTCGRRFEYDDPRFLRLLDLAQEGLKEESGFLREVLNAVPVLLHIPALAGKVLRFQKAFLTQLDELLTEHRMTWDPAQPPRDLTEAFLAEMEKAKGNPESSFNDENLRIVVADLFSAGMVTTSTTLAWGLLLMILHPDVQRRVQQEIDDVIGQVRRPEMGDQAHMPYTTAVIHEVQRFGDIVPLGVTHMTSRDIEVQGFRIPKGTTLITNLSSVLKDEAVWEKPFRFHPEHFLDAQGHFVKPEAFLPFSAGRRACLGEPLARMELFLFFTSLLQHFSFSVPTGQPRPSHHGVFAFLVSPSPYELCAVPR

Sequence of Luciferin 4-monooxygenase (P08659 whole entry): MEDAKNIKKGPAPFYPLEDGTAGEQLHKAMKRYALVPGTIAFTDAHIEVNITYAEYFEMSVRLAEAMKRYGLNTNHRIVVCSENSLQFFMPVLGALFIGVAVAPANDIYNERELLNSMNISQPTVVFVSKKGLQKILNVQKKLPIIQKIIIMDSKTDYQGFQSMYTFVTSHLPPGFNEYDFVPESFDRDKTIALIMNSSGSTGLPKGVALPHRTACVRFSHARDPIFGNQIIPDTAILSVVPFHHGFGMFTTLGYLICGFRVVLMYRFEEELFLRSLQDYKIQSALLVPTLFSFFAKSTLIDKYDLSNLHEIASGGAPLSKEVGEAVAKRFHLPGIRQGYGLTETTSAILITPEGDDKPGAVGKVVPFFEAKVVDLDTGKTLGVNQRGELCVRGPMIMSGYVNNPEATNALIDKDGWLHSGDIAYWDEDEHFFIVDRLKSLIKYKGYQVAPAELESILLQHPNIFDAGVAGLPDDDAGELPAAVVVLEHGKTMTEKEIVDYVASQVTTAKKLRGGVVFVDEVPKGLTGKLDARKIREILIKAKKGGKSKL

## COc1ccc(OCC(=O)Nc2nc3ccccc3[nH]2)cc1
[1]
  EC50: > 112 µM (not active)
[2]
  EC50: > 112 µM (not active)

## COC(=O)c1sccc1NC(=O)Nc1cccc(OC)c1
[1]
  EC50: 1.31 µM (active)
[2]
  EC50: 4.37 µM (active)

## Cc1nc(O)nc(O)c1/C=C/C(=O)OCC(C)C
[3]
  EC50: 22.7 µM (active)
[4]
  EC50: > 120 µM (not active)
[5]
  EC50: 15.5 µM (active)

## CCCCNc1c(-c2ccc(SC3CCCCC3)cc2)nc2ccccn12
[6]
  EC50: 8.18 µM (active)
[7]
  EC50: > 150 µM (not active)
[8]
  EC50: 1.2 µM (active)
[9]
  EC50: > 30 µM (not active)
[10]
  EC50: 8.23 µM (active)
[11]
  AC50: 5.33 µM (active)

## O=C(CC(=O)c1ccccc1[N+](=O)[O-])c1ccccc1
[12]
  EC50: > 195 µM (not active)

## COc1ccc(CC(=O)NCC2CCCN(Cc3ccccc3Cl)C2)cc1 (stereo not given)
[12]
  EC50: > 195 µM (not active)

## O=C(Oc1cc(=O)oc2c1c(=O)n1c3c(cccc23)CC1)c1ccc(F)cc1
[12]
  EC50: 22.2 µM (active)

## CCN(Cc1cc(=O)oc2cc(C)ccc12)c1ccccc1
[12]
  EC50: > 195 µM (not active)

## Cc1ccc(-c2nnc(O)c3ccccc23)cc1S(=O)(=O)NCCO
[13]
  IC50: > 79 µM (inactive)

## CC1CCCN(C(=O)C2CCN(S(=O)(=O)c3ccc4c(c3)CC(C)N4C(=O)C3CC3)CC2)C1 (stereo not given)
[12]
  EC50: > 195 µM (not active)

## CCn1c(O)cc(=O)nc1SCC(=O)N1CCOCC1
[12]
  EC50: > 195 µM (not active)

## COCCN1CN=C(Nc2nc3ccccc3o2)NC1
[1]
  EC50: > 112 µM (not active)
[2]
  EC50: > 112 µM (not active)
[14]
  AC50: 22.4 µM (inconclusive)

## COc1c(C)cc(Br)cc1C(=O)Nc1cccc(-c2nc3ncccc3o2)c1
[13]
  IC50: > 79 µM (inactive)

## Cc1ccc(C(c2c(C)n(C)n(-c3ccccc3)c2=O)c2c(C)n(C)n(-c3ccccc3)c2=O)s1
[13]
  IC50: > 79 µM (inactive)

## COc1ccc2oc(=O)c(C(=O)N3CCCC3)cc2c1
[1]
  EC50: > 112 µM (not active)
[2]
  EC50: > 112 µM (not active)

## COc1ccc(N(CC(=O)NCc2ccc(F)cc2)C(=O)Cn2nnc(-c3ccc(C)o3)n2)cc1OC
[12]
  EC50: > 195 µM (not active)

## O=C(NCc1ccccc1C(F)(F)F)C12CN(Cc3ccccc3)CC1C(c1ccc([N+](=O)[O-])cc1)=NO2 (stereo not given)
[12]
  EC50: > 195 µM (not active)

## CN1CCC(N(C)C(=O)CCc2nc(O)c3ccccc3n2)CC1
[13]
  IC50: > 79 µM (inactive)
[15]
  AC50: 28.2 µM (inconclusive)

## CC(CN1CCOCC1)OC(=O)C(c1ccccc1)c1ccccc1 (stereo not given)
[12]
  EC50: > 195 µM (not active)

## COc1ccc(C(=O)N2CCCC(c3nc(-c4ccc(OC)c(OC)c4)no3)C2)c(OC)c1 (stereo not given)
[1]
  EC50: > 112 µM (not active)
[2]
  EC50: > 112 µM (not active)

## COC(=O)c1ccc(CSc2nnc(N)s2)cc1
[1]
  EC50: > 112 µM (not active)
[2]
  EC50: > 112 µM (not active)

## COC1=C(Nc2ccccc2OC)C(=O)c2ccccc2C1=O
[11]
  AC50: 38.3 µM (active)

## O=c1c2ccccc2nc2c3ccccc3c(NCCO)nn12
[13]
  IC50: 20.2 µM (active)

## NC(=O)c1oc2ccccc2c1NC(=O)c1ccco1
[13]
  IC50: 17 µM (active)

## CCOC(=O)c1nn(-c2ccc3c(c2)CCN3C(C)=O)cc1O
[1]
  EC50: > 112 µM (not active)
[2]
  EC50: > 112 µM (not active)

## O=C(c1ccco1)N1CCN(Cc2nc3ccc([N+](=O)[O-])cc3c(=O)n2-c2ccccc2F)CC1
[13]
  IC50: 27.6 µM (active)

## CCC(=O)Nc1c(-c2ccc(Cl)cc2)c(=O)c2ccccc2n1C
[12]
  EC50: > 195 µM (not active)

## O=C1c2cccnc2Oc2ccc(Cl)cc2N1Cc1ccc(F)cc1
[12]
  EC50: > 195 µM (not active)
[13]
  IC50: > 79 µM (inactive)

## CCc1cc(CNC(=O)c2ccc3nc(Cc4ccc(OC)c(OC)c4)oc3c2)on1
[11]
  AC50: 3.62 µM (active)

## O=C(NCc1cccs1)c1csc2ccccc12
[1]
  EC50: > 112 µM (not active)
[2]
  EC50: > 112 µM (not active)

## Nc1cc2nc(O)c3ccccc3c2cc1Br
[13]
  IC50: > 79 µM (inactive)

## COc1cc(C2C3=C(COC3=O)OC(C)(C)Oc3cc4c(cc32)OCO4)cc(OC)c1OC (stereo not given)
[16]
  AC50: 1.78 µM (active)

## COc1cc(-c2cnc3c(NC=O)cc(-c4cccnc4)cn23)cc(OC)c1OC
[13]
  IC50: 22.4 µM (active)

## COc1cccc(-c2cnc3c(NC=O)cc(-c4ccc(OC)cc4OC)cn23)c1
[16]
  AC50: 2.93 µM (active)

## CC(=O)c1cccc(NC(=O)C(C)OC(=O)Cc2nnc(O)c3ccccc23)c1 (stereo not given)
[13]
  IC50: > 79 µM (inactive)

## Brc1cc2c(cc1/C=N/Nc1nc(N3CCCC3)nc(N3CCOCC3)n1)OCO2
[13]
  IC50: > 79 µM (inactive)
[17]
  AC50: 28.2 µM (inconclusive)
[14]
  AC50: 15.8 µM (inconclusive)

## CC/C(C)=N\N=C\c1c(O)n(CC)c2cc(C3=NNC(=O)CC3)ccc12
[1]
  EC50: > 112 µM (not active)
[2]
  EC50: 6.14 µM (active)
[13]
  IC50: 11.9 µM (active)

## COc1ccc(/N=C/C2=C(O)c3ccccc3C2=O)cc1
[1]
  EC50: 0.576 µM (active)
[2]
  EC50: 3.93 µM (active)

## C[C@H]1CCCCO[C@H](CN(C)S(=O)(=O)c2ccc(Cl)cc2)[C@@H](C)CN([C@@H](C)CO)C(=O)c2cc(NS(=O)(=O)c3ccc(Cl)cc3)ccc2O1
[16]
  AC50: 5.52 µM (active)

## C[C@@H]1CN([C@@H](C)CO)C(=O)c2cc(NS(=O)(=O)c3ccc(F)cc3)ccc2O[C@@H](C)CCCCO[C@H]1CN(C)Cc1ccc(C(F)(F)F)cc1
[16]
  AC50: 7.5 µM (active)

## C[C@@H]1CN([C@H](C)CO)C(=O)c2cc(NC(=O)c3ccncc3)ccc2O[C@@H](C)CCCCO[C@H]1CN(C)Cc1ccc(C(F)(F)F)cc1
[16]
  AC50: 12 µM (active)

## Cc1ccc(CO/N=C/c2c(O)cc(C)oc2=O)cc1
[12]
  EC50: > 195 µM (not active)
